The values that follow are results of earlier work, collected in US9849088B2, “Depot formulations of a hydrophobic active ingredient and methods for preparation thereof” (PAINREFORM LTD., priority 2012, dated 2017).

For this data set the following is noted: comparison value.

In the case of `CCCN1CCCC[C@H]1C(=O)Nc1c(C)cccc1C` [ropivacaine], the Toxic threshold (plasma) is 0.6 µg/mL.
